According to patent US7336989B2, “System and method for quantitative or qualitative measurement of exogenous substances in tissue and other materials using laser-induced fluorescence spectroscopy” (priority 2002, dated 2008):
Where “and” joins values, the source holds several entries; their conditions need not be identical. Identical values can stand only once.

Assay: Penetration depth of topically applied antibiotics into corneal tissue, by excimer laser ablation and laser-induced fluorescence spectroscopy with PLS model
Type: in vitro ADME
Conditions: for Antibiotic Penetration Depth (Mean): rinsed, mean of cases (SD in text)
Description: The second set of experiments was performed on fresh rabbit corneas. All experiments were performed in compliance with the Association for Research in Vision and Ophthalmology (ARVO) Statement on the Use of Animals in Research. Approval was obtained from the University of California, Irvine, Institutional Care and Use Committee (IACUC) and the IACUC guidelines regarding animal experimentation were followed. New Zealand White rabbit heads were obtained from an abattoir and kept at 4° C. until eyes were enucleated within 7-hours of death to maximize preservation of the corneal epithelium. The globes were stored in a moist chamber at 4° C. for approximately 4 hours until time of use.
The main component, mounted on or above an optical table 21, is the Nidek EC-5000 laser system 22 (Model EC-5000, Nidek Technologies, Inc., Japan) operating at 193 nm. The average laser energy is about 16.4 mJ/pulse measured over a period of 10-s while pulsing at 4 Hz. The eye-fixation LED and the aiming He—Ne laser within the laser system 22 are disabled to avoid their interference with the measured corneal autofluorescence.
During the experiments, the laser 22 is operated to emit a collimated laser beam 23 in the direction of a cornea 24. The laser 22 is operated in its manual mode to pulse the beam 23 at 4 Hz and generate a rectangular spot size of about 2×4.5-mm. The BNC cable connecting the control circuitry of the EC-5000 to the OEM […] excimer laser (Lambda Physik, Fort Lauderdale, Fla.) is tapped using a BNC T-adapter. […]
Each pulse of radiation emitted from the laser 22 ablates a thin layer of the cornea 24. The laser-induced fluorescence (LIF) 32 produced by the ablated cornea 24 is reflected by a 2″ off-axis parabolic mirror 34 (Al, SiO-protected Model A8037-331, Janos Technology Inc., Townshend, Vt.) mounted on a mirror holder 36 that is, in turn, mounted on an XYZ translator 38. […] With each trigger pulse, the spectrograph 26 measures and auto-saves the fluorescence spectrum generated by the corresponding laser pulse.
The cornea 24 was placed epithelium-up (with the exception of the cornea in Example 4) on a circular aluminum tray 42. […] The laser 22 was set to ablate the cornea at 4-Hz for a period of about 7-minutes and the fluorescence spectrum generated by each pulse was measured and saved. […]
In each set of experiments, the measured fluorescence spectra are corrected for dark current and background light, and each spectrum is smoothed using a 5-point moving average window. The series of spectra measured from a given cornea are normalized by the peak value of the first spectrum in the series (i.e. the spectrum of the corneal surface). […]

Row | SMILES | Penetration of the corneal epithelium (in words) | Antibiotic Penetration Depth (individual cases) (enucleated rabbit globes, topical 4 drops for 10 min, then 3 drops for 5 min, rinsed with lactated Ringer's, single cornea per case) | Antibiotic Penetration Depth (Mean) (enucleated rabbit globes, topical 4 drops for 10 min, then 3 drops for 5 min) [μm] | Antibiotic Penetration Depth (Mean) (enucleated rabbit globes, topical 4 drops for 10 min, then 3 drops for 5 min, listed as ciprofloxacin) [μm]
1 | COc1c(N2CCNC(C)C2)c(F)cc2c(=O)c(C(=O)O)cn(C3CC3)c12 (stereo not shown) [Gatifloxacin, gatifloxacin] | penetrate the epithelium significantly more than ciprofloxacin |  |  | 
2 | O=C(O)c1cn(C2CC2)c2cc(N3CCNCC3)c(F)cc2c1=O [Ciprofloxacin, ciprofloxacin] |  | 0.6 μm and 1.5 μm and 0.9 μm | 1.0 | 1.0±0.5
